From publication PMC10046693, “KI04 an Aminoglycosides-Derived Molecule Acts as an Inhibitor of Human Connexin46 Hemichannels Expressed in HeLa Cells” (Biomolecules, 2023)

Tests used:
[1] = target: T1, Connexin46 (Cx46) hemichannel (Homo sapiens, UniProt Q9Y6H8); test: DAPI uptake dose response in Cx46tGFP HeLa cells; type: cell-based
T1 construct: gene GJA3; human Cx46tGFP (turbo GFP fusion) expressed in HeLa cells

[2] = target: T1, Connexin46 (Cx46) hemichannel; test: DAPI uptake dose response in Cx46tGFP HeLa cells; whole-cell patch clamp ([…] KI04 decreased currents); type: cell-based

IC50 [2] | Compound | IC50 [1]
– | NC[C@H]1O[C@H](O[C@H]2[C@H](O)[C@@H](O[C@H]3O[C@H](CO)[C@@H](O)[C@H](N)[C@H]3O)[C@H](N)C[C@@H]2N)[C@H](O)[C@@H](O)[C@@H]1O [kanamycin] | 1.7 µM
~7.7 µM | CCCCCCCCCCCC(=O)NC[C@@H]1O[C@H](O[C@H]2[C@H](O)[C@@H](O[C@H]3O[C@H](CO)[C@@H](O)[C@H](N)[C@H]3O)[C@H](N)C[C@@H]2N)[C@H](O)[C@@H](O)[C@@H]1O [KI04] | –
